In patent US20250129028A1, “COMPOUNDS AND METHODS FOR YAP/TEAD MODULATION AND INDICATIONS THEREFOR” (Opna Bio SA, priority 2022, published 2025) one finds IC50 data, which are given here for 25 compounds.

The assay deals with TEAD-dependent transcription. Briefly: TEAD-dependent transcription cell-based reporter assay (MSTO-211H+12XGTIIC luciferase). Also noted: species or system human. To be noted: Homo sapiens; MSTO-211H+12XGTIIC cell line, luciferase signal normalized to cell viability, 24 hours compound incubation; read-out: MSTO-211H GMean IC50 (uM) Cell Assay Reporter Cell Variant: TEAD. An outline of the steps: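 MSTO-211H mesothelioma cells stably carrying a 12xGTIIC TEAD-response-element luciferase reporter, treated with serial compound dilutions for 24 h at 37 °C. Luminescence normalized to CellTiter-Fluor viability signal; % inhibition versus DMSO and 20 μM K-975 controls, IC50 by nonlinear regression.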
Background: Reporter assays use an easily measured gene product as a stand-in for the process of interest.
`CN(C)CCCC(=O)N1CCc2ccc(Oc3ccc(C(F)(F)F)c(F)c3)cc2C1` [P-0110, 4-(dimethylamino)-1-(7-(3-fluoro-4-(trifluoro-methyl)phenoxy)-3,4-dihydroisoquinolin-2(1H)-yl)butan-1-one]: the IC50 lay within 0.001 to 10 µM. In the case of `CN(C)C1CC(C(=O)N2CCc3ccc(Oc4ccc(C(F)(F)F)c(F)c4)cc3C2)C1` (stereo not shown) [P-0111, (3-(dimethylamino)cyclo-butyl)(7-(3-fluoro-4-(trifluoromethyl)phen-oxy)-3,4-dihydroisoquin-olin-2(1H)-yl)methanone], the half-inhibitory concentration (IC50) was in the range of 0.001 to 10 µM. Turning to `CC(C)(C)OC(=O)NCC(=O)N1CCc2ccc(Oc3ccc(C(F)(F)F)c(F)c3)cc2C1` [P-0112, tert-butyl (2-(7-(3-fluoro-4-(trifluoromethyl)phen-oxy)-3,4-dihydroisoquin-olin-2(1H)-yl)-2-oxoeth-yl)carbamate], the IC50 is 0.001 to 10 µM. As to `NCC(=O)N1CCc2ccc(Oc3ccc(C(F)(F)F)c(F)c3)cc2C1` [P-0113, 2-amino-1-(7-(3-fluoro-4-(trifluoromethyl)phen-oxy)-3,4-dihydroisoquin-olin-2(1H)-yl)ethan-1-one], the IC50 fell in the range of 0.001 to 10 µM. Consider `O=C(CNS(=O)(=O)C(F)(F)F)N1CCc2ccc(Oc3ccc(C(F)(F)F)c(F)c3)cc2C1` [P-0114, 1,1,1-trifluoro-N-(2-(7-(3-fluoro-4-(trifluoromethyl)phenoxy)-3,4-dihydroisoquinolin-2(1H)-yl)-2-oxoethyl)methanesulfonamide], for which the IC50 is 0.001 to 10 µM. `C=CC(=O)NCC(=O)N1CCc2ccc(Oc3ccc(C(F)(F)F)c(F)c3)cc2C1` [P-0115, N-(2-(7-(3-fluoro-4-(trifluoromethyl)phen-oxy)-3,4-dihydroisoquin-olin-2(1H)-yl)-2-oxoeth-yl)acrylamide]: the IC50 was in the range of 0.001 to 10 µM. In the case of `CN(C)S(=O)(=O)NCC(=O)N1CCc2ccc(Oc3ccc(C(F)(F)F)c(F)c3)cc2C1` [P-0116, N,N-dimethyl-N′-(2-(7-(3-fluoro-4-(trifluoro-methyl)phenoxy)-3,4-dihydroisoquinolin-2(1H)-yl)-2-oxoethyl)-sulfamide], the IC50 is 0.001 to 10 µM. In the case of `O=C(CNS(=O)(=O)C1CC1)N1CCc2ccc(Oc3ccc(C(F)(F)F)c(F)c3)cc2C1` [P-0117, N-(2-(7-(3-fluoro-4-(trifluoromethyl)phen-oxy)-3,4-dihydroisoquin-olin-2(1H)-yl)-2-oxoeth-yl)cyclopropanesulfon-amide], the IC50 was 0.001 to 10 µM.

For the compound `C=CC(=O)N1CC(C(=O)N2CCc3ccc(Oc4ccc(C(F)(F)F)c(F)c4)cc3C2)C1` [P-0118, 1-(3-(7-(3-fluoro-4-(trifluoromethyl)phen-oxy)-1,2,3,4-tetrahydro-isoquinoline-2-carbon-yl)azetidin-1-yl)prop-2-en-1-one], the IC50 was in the range of 0.001 to 10 µM.

With `C=CC(=O)N1CCC(C(=O)N2CCc3ccc(Oc4ccc(C(F)(F)F)c(F)c4)cc3C2)C1` (stereo not shown) [P-0119, 1-(3-(7-(3-fluoro-4-(trifluoromethyl)phen-oxy)-1,2,3,4-tetrahydro-isoquinoline-2-carbon-yl)pyrrolidin-1-yl)prop-2-en-1-one], the IC50 fell in the range of 0.001 to 10 µM.

As for `C=CC(=O)N1CCCC(C(=O)N2CCc3ccc(Oc4ccc(C(F)(F)F)c(F)c4)cc3C2)C1` (stereo not shown) [P-0120, 1-(3-(7-(3-fluoro-4-(trifluoromethyl)phen-oxy)-1,2,3,4-tetrahydro-isoquinoline-2-carbon-yl)piperidin-1-yl)prop-2-en-1-one], the IC50 fell in the range of 0.001 to 10 µM. Then `C=CC(=O)N1CCC(C(=O)N2CCc3ccc(Oc4ccc(C(F)(F)F)c(F)c4)cc3C2)CC1` [P-0121, 1-(4-(7-(3-fluoro-4-(trifluoromethyl)phen-oxy)-1,2,3,4-tetrahydro-isoquinoline-2-carbon-yl)piperidin-1-yl)prop-2-en-1-one], with 0.001 to 10 µM. Under `O=C(c1cnco1)N1CCc2ccc(Oc3ccc(C(F)(F)F)cc3)cc2C1` [P-0122, oxazol-5-yl(7-(4-(trifluoromethyl)phen-oxy)-3,4-dihydroisoquin-olin-2(1H)-yl)methanone] stands 0.001 to 10 µM. As for `NS(=O)(=O)CCC(=O)N1CCc2ccc(Oc3ccc(C(F)(F)F)c(F)c3)cc2C1` [P-0123, 3-(7-(3-fluoro-4-(trifluoromethyl)phen-oxy)-3,4-dihydroisoquin-olin-2(1H)-yl)-3-oxopro-pane-1-sulfonamide], the IC50 is 0.001 to 10 µM. Under `NC(=O)c1cc(C(=O)N2CCc3ccc(Oc4ccc(C(F)(F)F)cc4)cc3C2)n[nH]1` [P-0124, 3-(7-(4-(trifluorometh-yl)phenoxy)-1,2,3,4-tetrahydroisoquinoline-2-carbonyl)-1H-pyrazole-5-carboxamide] stands 0.001 to 10 µM; under `NS(=O)(=O)CC(=O)N1CCc2ccc(Oc3ccc(C(F)(F)F)cc3)cc2C1` [P-0125, 2-oxo-2-(7-(4-(trifluoro-methyl)phenoxy)-3,4-dihydroisoquinolin-2(1H)-yl)ethane-1-sul-fonamide], 0.001 to 10 µM; under `NS(=O)(=O)c1ccc(C(=O)N2CCc3ccc(Oc4ccc(C(F)(F)F)cc4)cc3C2)cc1` [P-0126, 4-(7-(4-(trifluorometh-yl)phenoxy)-1,2,3,4-tetrahydroisoquinoline-2-carbonyl)benzene-sulfonamide], 0.001 to 10 µM. With `NC(=O)c1ccc(C(=O)N2CCc3ccc(Oc4ccc(C(F)(F)F)cc4)cc3C2)cn1` [P-0127, 5-(7-(4-(trifluorometh-yl)phenoxy)-1,2,3,4-tetrahydroisoquinoline-2-carbonyl)picolinamide], the IC50 was 0.001 to 10 µM.

As for `CNS(=O)(=O)NCC(=O)N1CCc2ccc(Oc3ccc(C(F)(F)F)cc3)cc2C1` [P-0128, N-methyl-N′-(2-(7-(4-(trifluoromethyl)phen-oxy)-3,4-dihydroisoquin-olin-2(1H)-yl)-2-oxoeth-yl)sulfamide], the IC50 was 0.001 to 10 µM. Then `O=C1CCC(C(=O)N2CCc3ccc(Oc4ccc(C(F)(F)F)cc4)cc3C2)CN1` (stereo not shown) [P-0129, 5-(7-(4-(trifluoromethyl)-phenoxy)-1,2,3,4-tetra-hydroisoquinoline-2-carbonyl)piperidin-2-one], with 0.001 to 10 µM; and `O=C1CC(C(=O)N2CCc3ccc(Oc4ccc(C(F)(F)F)cc4)cc3C2)CCN1` (stereo not shown) [P-0130, 4-(7-(4-(trifluoromethyl)-phenoxy)-1,2,3,4-tetra-hydroisoquinoline-2-carbonyl)piperidin-2-one], with 0.001 to 10 µM. As to `CC(C)(C)OC(=O)NCC(=O)N1CCc2ccc(Oc3ccc(C(F)(F)F)cc3)cc2C1` [P-0131, tert-butyl (2-oxo-2-(7-(4-(trifluoromethyl)phen-oxy)-3,4-dihydroisoquin-olin-2(1H)-yl)ethyl)-carbamate], the IC50 was in the range of 0.001 to 10 µM. Under `O=C1CCC(CC(=O)N2CCc3ccc(Oc4ccc(C(F)(F)F)cc4)cc3C2)CN1` (stereo not shown) [P-0132, 5-(2-oxo-2-(7-(4-(trifluoromethyl)phen-oxy)-3,4-dihydroisoquin-olin-2(1H)-yl)ethyl)piper-idin-2-one] stands 0.001 to 10 µM; under `O=C(Cc1cc[nH]n1)N1CCc2ccc(Oc3ccc(C(F)(F)F)cc3)cc2C1` [P-0133, 2-(1H-pyrazol-3-yl)-1-(7-(4-(trifluoromethyl)-phenoxy)-3,4-dihydroiso-quinolin-2(1H)-yl)ethan-1-one], 0.001 to 10 µM.

With `N#Cc1nc(N2CCc3ccc(Oc4ccc(C(F)(F)F)cc4)cc3C2)cs1` [P-0134, 4-(7-(4-(trifluorometh-yl)phenoxy)-3,4-dihydro-isoquinolin-2(1H)-yl)thi-azole-2-carbonitrile], the IC50 lay within 0.001 to 10 µM.

The IC50 is the point on the concentration scale where inhibition reaches its midpoint.
